≈ marks a conversion by molar mass, not a printed value.
Key:
MRSA Strain 1770 [1] = test: Biofilm inhibition assay (crystal violet); assay type: cell-based, Staphylococcus aureus; conditions: for inhibition at 5 µM / inhibition at 40 µM: Staphylococcus aureus, read-out: % Biofilm Inhibition (5/40 μM)
Description: (§1) General Information. Methicillin-resistant Staphylococcus aureus (MRSA) strains were obtained from the Laboratory of Professor Christian Melander (NCSU) ATCC (33591, BAA 44, BAA 1685, BAA 1770, BAA 43 300) and colonies were grown on solid media as instructed. Mueller-Hinton broth (MHB, 211443-BD), tryptic soy broth (TSB, Remel: R455052) and D-glucose (CAS: 492-62-6) were purchased from Fisher Scientific. Tryptic soy agar (TSA, cat. #22091) and Linezolid (cat. # P70014) were purchased from Sigma-Aldrich. Bacteria for biofilm inhibition and dispersion assays were cultured overnight in TSBG (tryptic soy broth with 0.5% glucose supplement). All assays were run in duplicate and repeated at least two separate times for MIC assays and at least four separate times for biofilm inhibition and dispersion assays. All compounds were dissolved molecular biology grade DMSO as 100 mM stock solutions and further diluted to 10 and 1 mM stock solutions as needed. Optical densities were measured using a Thermo Scientific Genesys 20 spectrophotometer. Data for biofilm inhibition and dispersion assays was collected using a BioTek ELx808 Microplate Reader. All graphs were generated and analyzed using GraphPad Prism 7.
(§2) Biofilm Inhibition Assay. Studies were performed using the standard method described in S. A. Rogers and C. Melander, Angew Chem Int Ed, 2008, 47, 5229-5231. Briefly, biofilm inhibition assays were performed by taking an overnight culture of bacterial strain and subculturing it at an OD600 of 0.01 into the necessary growth liquid medium (LB for A. baumannii, LBNS for P. aeruginosa, Stainer-Scholte medium that was supplemented with 10 μL/mL of 100× nutrient complex for B. bronchiseptica and TSB w/0.3% glucose for S. aureus) for the strain. The compound being tested was then added at a predetermined concentration and then aliquoted (100 μL) into the wells of a 96-well PVC microtiter plate (wells not used for samples are filled with 100 μL of de-ionized water). Plates were then wrapped in GLAD Press n' Seal and incubated under stationary conditions at 37° C. After 24 hours, the media was discarded from the wells and the plates were washed thoroughly with tap water. Plates were then stained with 100 μL of 0.1% solution of crystal violet (CV) and then incubated at an ambient temperature for 30 minutes. Sample plates were then washed with tap water again and the remaining stain was solubilized with 200 μL of 95% ethanol. Biofilm inhibition was quantitated by measuring the OD540 for each well by transferring 125 μL of the solubilized CV stain into a polystyrene microtiter dish for analysis. Biofilm inhibition was quantified by measuring the OD540 of each well and calculated as a percentage of the control (no compound); a negative control lane wherein no biofilm was formed served as a background and was subtracted out.
(§3) Percent inhibition was then plotted against concentration in Prism 7. Each of the four experiments were plotted separately and analyzed by a normalized nonlinear regression. The IC50 values reported represent an arithmetic mean of the four IC50 values. Biofilm data represent four separate experiments, with each experiment performed in duplicate (average of 8 data points for each concentration tested, unless otherwise noted)

MRSA ATCC BAA-44 = test: Biofilm inhibition assay (crystal violet); assay type: cell-based, Staphylococcus aureus; conditions: for IC50: MRSA ATCC BAA-44; for inhibition at 5 µM: MRSA ATCC BAA 44; for dose dependence of biofilm inhibition (in words): relative to MIC
Description: as §1, §2, §3

MRSA Strain 1685 = test: Broth microdilution MIC determination; assay type: cell-based; conditions: Staphylococcus aureus
Description: as §1
(§4) Broth microdilution protocol for minimum inhibition concentration (MIC) determination. Studies were performed using the standard method prescribed by the Clinical and Laboratory Standards Institute (CLSI) M07-A8, Vol. 29 (2), which is hereby incorporated herein by reference. Briefly, fresh Mueller-Hinton broth (MHB) ˜3 ml, was inoculated (5×10^5 CFU mL^−1) with MRSA (ATCC 33591) methicillin-resistant Staphylococcus aureus. The resulting bacterial suspension was aliquoted (1 mL) into culture tubes and test compound (10 mM DMSO stock solution) was added to reach the final concentration of the interest. Bacteria not treated with the antimicrobial compound served as the control. Rows 2-12 of a 96-well microtiter plate were filled with remaining bacterial subcultures. The samples containing test compound were aliquoted (200 μL) into the first row wells of the microtiter plate (2 wells per compound). Row 1 wells were mixed 6-8 times and 100 μL was transferred down to row 2. Row 2 wells were mixed 6-8 times, followed by a 100 μL transfer from row 2 down to row 3. The rest of the rows of the plate were serially diluted in similar fashion. The plate was covered with sealing tape for 96-well plates (ThermoFisher) and incubated under stationary conditions at 37° C. A duplicate of the plate was prepared.

MRSA ATCC 33591 = test: Broth microdilution MIC determination; assay type: cell-based; conditions: Staphylococcus aureus, Table 1, read-out: Antimicrobial Activity MIC
Description: as §1, §4

MRSA Strain 1770 [2] = test: Broth microdilution MIC determination; assay type: cell-based; conditions: Staphylococcus aureus
Description: as §1, §4

MRSA Strain 43300 = test: Broth microdilution MIC determination; assay type: cell-based; conditions: Staphylococcus aureus
Description: as §1, §4

**Q.** Which inhibition at 5 µM (MRSA Strain 1770 [1]) does the source give for `CCCCC(Cl)(Cl)C1NC(=O)/C(=C/c2ccc(C(F)(F)F)cc2)O1` (stereo not drawn) [Compound 1, (Z)-2-(1,1-dichloropentyl)-5-(4-(trifluoromethyl)benzylidene)oxazolidin-4-one] here?
**A.** 49%

**Q.** And the inhibition at 40 µM (MRSA Strain 1770 [1])?
**A.** 66%

**Q.** What about the IC50 (MRSA ATCC BAA-44) of the same molecule?
**A.** 1 µM

**Q.** And the inhibition at 5 µM (MRSA ATCC BAA-44; Staphylococcus aureus)?
**A.** 89%

**Q.** And the IC50 (MRSA ATCC BAA-44; Staphylococcus aureus)?
**A.** 0.78 µM

**Q.** And the “dose dependence of biofilm inhibition (in words)” value (MRSA ATCC BAA-44)?
**A.** dose-dependent biofilm inhibition at concentrations well below their MIC

**Q.** What about the MIC (MRSA Strain 1685) of the same molecule?
**A.** 16 µg/mL (≈ 41.9 µM)

**Q.** And the MIC (MRSA ATCC 33591)?
**A.** 12 µg/mL (≈ 31.4 µM)

**Q.** And the MIC (MRSA Strain 1770 [2])?
**A.** 16 µg/mL (≈ 41.9 µM)

**Q.** What about the MIC (MRSA Strain 43300) of the same molecule?
**A.** 8 µg/mL (≈ 20.9 µM)

**Q.** For `O=C1NC(C(Cl)(Cl)Cc2ccccc2)O/C1=C\c1ccc(C(F)(F)F)cc1` (stereo not drawn) [Compound 2, (Z)-2-(1,1-dichloro-2-phenylethyl)-5-(4-(trifluoromethyl)benzylidene)oxazolidin-4-one], which “biofilm inhibition activity (in words)” value (MRSA Strain 1770 [1]) is on record?
**A.** virtually no activity

**Q.** What about the inhibition at 5 µM (MRSA Strain 1770 [1]) of the same molecule?
**A.** 3%

**Q.** What about the inhibition at 40 µM (MRSA Strain 1770 [1]) of the same molecule?
**A.** -16%

**Q.** What about the IC50 (MRSA ATCC BAA-44) of the same molecule?
**A.** 1.4 µM

**Q.** And the inhibition at 5 µM (MRSA ATCC BAA-44; Staphylococcus aureus)?
**A.** 82%

**Q.** What about the IC50 (MRSA ATCC BAA-44; Staphylococcus aureus) of the same molecule?
**A.** 1.2 µM

**Q.** What about the “dose dependence of biofilm inhibition (in words)” value (MRSA ATCC BAA-44) of the same molecule?
**A.** dose-dependent biofilm inhibition at concentrations well below their MIC

**Q.** What about the MIC (MRSA Strain 1685) of the same molecule?
**A.** 8 µg/mL (≈ 19.2 µM)

**Q.** What about the MIC (MRSA ATCC 33591) of the same molecule?
**A.** 6 µg/mL (≈ 14.4 µM)

**Q.** What about the MIC (MRSA Strain 1770 [2]) of the same molecule?
**A.** 8 µg/mL (≈ 19.2 µM)

**Q.** And the MIC (MRSA Strain 43300)?
**A.** 8 µg/mL (≈ 19.2 µM)

Source: patent US10822315B2, “5-benzylidene-4-oxazolidinones” (NORTH CAROLINA STATE UNIVERSITY, priority 2016, dated 2020)
